In patent US20230331679A1, “NAPHTHALENE MONOIMIDE COMPOUNDS AND METHODS THEREOF” (JAWAHARLAL NEHRU CENTRE FOR ADVANCED SCIENTIFIC RESEARCH, priority 2020, published 2023):

Experiments:
[1] = target: T1, Aβ42 fibrillar aggregates (Homo sapiens, UniProt P05067); experiment: ThT binding assay, dissolution of preformed Aβ42 fibrils; type: biochemical; settings: after sixth day of incubation
T1 construct: commercially available β-amyloid peptide (1-42), human; purchased marck (so in the source) PP69-.025 mg
Procedure: (§1) Monomeric form of Aβ42 peptide was prepared by dissolving 0.25 mg of commercially available β-amyloid peptide (1-42), human (cat: PP69-.025 mg), marck peptide in 250 µL of hexafluoro-2-propanol (HFIP) solvent to obtain a Aβ42 solution. This solution was incubated at room temperature for 1 hour, further to which the HFIP solvent was removed by nitrogen gas flow to obtain the monomeric Aβ42 peptide. To prepare a fibrillar sample of Aβ42 peptide, 0.025 mg of Aβ42 peptide was dissolved in […] of PBS buffer (pH = 7.4; contains 2% of DMSO or 100 mM NaOH) to obtain a monomeric Aβ42 solution and the peptide concentration in this solution was calculated through UV-Visible absorbance studies (ε = 1450 cm^-1 M^-1). The Aβ42 monomeric solution was incubated for 5 days in PBS buffer (pH = 7.4) to allow for the full phase formation of Aβ42 fibrils. The presence of Aβ42 fibrils was further confirmed by ThT assay.
(§2) The ability of NMI compounds (TGR63, TGR64 and TGR65) to prevent Aβ42 fibrillar assembly (inhibition) and to break down the preformed fibrils (dissolution) was evaluated using thioflavin (ThT) binding assay. Aβ42 fibrils at a concentration of 10 µM and its aggregates, were used to study the effect of NMI compounds (TGR63, TGR64 and TGR65) at varying concentrations on both inhibition and dissolution assays. For the inhibition assay, all the NMI compounds (TGR63, TGR64 and TGR65) were added independently to Aβ peptide (10 µM) at 0 h of the experiment, whereas for the aggregates dissolution assay they were added to Aβ42 fibrillar aggregates grown for 2 days. Upon incubating for a predetermined period, Aβ42 inhibitor samples were analyzed using ThT by measuring the fluorescence change at 485 nm as presented in FIG. 1(b) and FIG. 1(c), wherein the error bars represent the standard deviation (SD) of the fluorescence measurement. Fluorescence values were normalized to maximal fluorescence intensity at 485 nm compared to that of the control (Aβ42 with no inhibitor). Experiments were performed at various stoichiometric ratios (Aβ42/inhibitor) of 1:1, 1:2, and 1:5 with a fixed concentration of Aβ42 at 10 µM. Each experiment was repeated three times (n = 3). […] TGR 63 recorded 80% dissolution efficiency while TGR 64 and TGR 65 recorded 75% and 78% dissolution efficiency respectively, for the stoichiometric ratio of 1:5.

APP/PS1 mice = experiment: Amyloid burden in brain by OC immunohistochemistry; type: in vivo
Text: To evaluate the activity of TGR63 to ameliorate amyloid burden in in vivo AD model, APP/PS1 mice were bred, maintained and characterized (WT: wild type; AD: APP/PS1 positive) according to the Jackson Laboratory protocols. The double transgenic APP/PS1 mice (B6C3-Tg (APPswe, PSEN IdE9)85Dbo/J; stock number 004462), which express human transgenes APP and presenilin 1 (PS1) in the central nervous system (CNS) contains the Swedish and […], respectively. The K595N/M596L (Swedish) mutation favors the amyloidogenic processing of APP protein, and PS1 mutation ([…]) elevates the production of Aβ peptides through modifying the intra-membrane γ-complex. The presence of Aβ plaques in the APP/PS 1 AD phenotypic mouse brain was confirmed and compared with the healthy brain by Aβ plaques-specific staining protocols. FIG. 13 depicts the Staining of amyloid plaques with OC primary antibody and ThT or CQ probe, FIG. 13A represent the high-resolution confocal microscopy images of cortex and hippocampus regions of the AD mouse brain, immunostained with OC antibody (red), DAPI (blue) and ThT (green). The merged images display significant overlap between ThT and OC staining to confirm the amyloid deposition (pointed with white arrows), FIG. 13A represent the visualization of amyloid deposits associated neuronal damage: The DIC images of different regions of AD. The merged images of DIC and confocal microscopy images show amyloid plaques associated brain damage (pointed out with red arrows). The brains were harvested from the age matched WT and AD mice and treated with PFA (4%) and sucrose solution (30%) for the sagittal brain sectioning (40 µm sections). The brain sections were co-stained with ThT (λex= 442 nm, λem= 482 nm) and OC primary antibody followed by fluorescently labeled secondary antibody (λex= 633 nm, λem= 650 nm) or CQ to visualize and confirm the amyloid plaques deposition. […] Similar fluorescence signals (green and red) were absent in the age-matched WT brain section, confirming the amyloid plaques-free healthy brain (FIG. 13A). The hippocampal damage, a hallmark of advanced AD condition was partially observed in 14 month old APP/PS1 mice. Age-matched AD, and WT cohorts were administered with TGR63 (5 mg/kg body weight/day) and vehicle starting from the age of 6 months following the treatment protocols as shown in FIG. 14. The experimental mice were sacrificed after completing the behavioral studies (14 months) to investigate amyloid deposits in the brain using immunohistochemistry. The sagittal brain sections were permeabilized and blocked with PBTx (0.1 M PBS and 0.1% TritonX-100) and goat serum (1%) containing BSA (2%) at room temperature, respectively. […]

Aβ42 = target: T2, Aβ42 (Homo sapiens, UniProt P05067); experiment: ThT binding assay, inhibition of Aβ42 fibrillar assembly; type: biochemical
T2 construct: commercially available β-amyloid peptide (1-42), human; purchased marck (so in the source) PP69-.025 mg
Procedure: as §1
Initially, the ability of the prepared NMI compounds, TGR63-68 to inhibit Aβ42 fibrillar assembly at 1:1 molar ratio with Aβ42 fibrils was evaluated using thioflavin (ThT) binding assay. 10 µM of Aβ42 fibrils in the absence (Ctrl) and the presence of 10 µM of inhibitors individually were incubated for 72 h. A normalized data for fluorescence intensity (NFI) of ThT at 482 nm (λex = 442 nm) was measured as represented in FIG. 1(a).
as §2

T2 sequence (P05067 672-713 limits assumed): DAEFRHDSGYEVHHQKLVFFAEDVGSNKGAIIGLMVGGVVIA
T1 sequence (P05067 672-713 limits assumed): as above

CN(C)c1ccc(C#Cc2ccc3c4c(cccc24)C(=O)N(CC[N+](C)(C)C)C3=O)cc1 [TGR63, 2-(6-((4-(dimethylamino)phenyl)ethynyl)-1,3-dioxo-1H-benzo[de]isoquinolin-2(3H)-yl)-N,N,N-trimethylethan-1-aminium]
dissolution efficiency ([1]; Aβ42/inhibitor 1:1, Aβ42 10 µM): ~ 35%
dissolution efficiency ([1]; Aβ42/inhibitor 1:2, Aβ42 10 µM): ~ 50%
dissolution efficiency ([1]; Aβ42/inhibitor 1:5, Aβ42 10 µM): 80%
Aβ plaques deposits, area of the hippocampus (APP/PS1 mice; AD (APP/PS1) mice, 5 mg/kg body weight/day from 6 to 14 months, vehicle 6.28%): 0.94 % area
Aβ plaques deposits, area of the cortex (APP/PS1 mice; AD (APP/PS1) mice, 5 mg/kg body weight/day from 6 to 14 months, vehicle 8.87%): 1.94 % area
reduction of Aβ deposits in the cortex (APP/PS1 mice; AD mice, versus vehicle): 78%
reduction of Aβ deposits in the hippocampus (APP/PS1 mice; AD mice, versus vehicle): 85%
inhibitory effect on Aβ42 aggregation (ThT NFI at 482 nm) (Aβ42; 1:1 molar ratio, 10 µM Aβ42, 10 µM inhibitor, 72 h): ~ 45%
decrease in the formation of Aβ aggregates (Aβ42; Aβ42/inhibitor 1:1, Aβ42 10 µM, third day of incubation): ~ 50%
Aβ aggregation decreased to (Aβ42; Aβ42/inhibitor 1:2, Aβ42 10 µM, third day of incubation): 75%
Aβ aggregation decreased to (Aβ42; Aβ42/inhibitor 1:5, Aβ42 10 µM, third day of incubation): 90%
